From patent publication US20190117657A1, “METHOD OF INHIBITING HIGH FAT DIET-RELATED CONDITIONS” (South Australian Health and Medical Research Institute …, priority 2016, published 2019)
Values belong to the compound of their own block, whether it stands above or below them.

Key:
MNKs = test: eIF4E phosphorylation (P-eIF4E immunoblot) in 3T3-L1 cells as read-out of MNK activity; assay type: cell-based
Source text: Similar data obtained in three replicate experiments.
The term “MNK inhibitor” as used herein is intended to refer to any compound that reduces the biological activity of MNK1 (including reducing the biological activity of one or both of splice variants MNK1 a and MNK1b) and/or MNK2 (including reducing the biological activity of one or both of splice variants MNK2a and MNK2b), including by reducing the amount of MNK1 and/or MNK2 expressed. For example, the MNK inhibitor may be a small organic molecule (also referred to as a “small molecule” herein), a peptide antagonist, an inhibitory antibody or fragment thereof, an interfering nucleotide molecule, an aptamer or other MNK inhibitor that inhibits the expression or biological activity as would be understood by those skilled in the art. The biological activity of MNK1 and MNK2 can be measured in a variety of ways, for example, by measuring phosphorylation of its substrate eIF4E to P-eIF4E using any suitable method known to those skilled in the art, for example, by performing an immunoblot or ELISA utilising a specific anti-P-eIF4E antibody, for example, the anti-phospho eIF4E (Ser209) antibody distributed by Merck Millipore, Catalogue No. 07-823 (Merck Millipore, Billerica, Mass., United States of America). […] Those skilled in the art will be aware of how to conduct suitable controls when measuring P-eIF4E levels. The MNK1 and/or MNK2 bioactivity can otherwise be measured using a cellular assay that can detect levels of MNK1 and/or MNK2 bioactivity. Antibodies that specifically detect phosphorylated MNK could also be used, for example, anti-P-MNK1 (Phospho-Mnk1 (Thr197/202) Antibody #2111; Cell Signaling Technology Inc, Danvers, Mass., United States of America). Additionally, those skilled in the art will appreciate that the MNK inhibitors should be safe for use for its intended purpose.
Tissues were harvested in RIPA lysis buffer containing 50 mM TrisHCl, pH 7.4, 150 mM NaCl, 1% Triton X-100, 0.1% sodium deoxycholate, 0.1% sodium dodecyl sulfate, 1 mM ethylenediaminetetraaacteic acid (EDTA), 50 mM β-glycerolphosphate, 0.5 mM NaVO3, 0.1% 2-mercaptoethanol and protease inhibitors (Roche). After lysis, insoluble material was removed by centrifugation at 12,000 g for 10 min at 4° C. Protein content was determined by the Bradford protein assay (Bio-Rad). Immunoblotting was performed as described in Liu et al. (2014). Blots were visualised using a LI-COR Odyssey® Quantitative Imaging System. Primary antibodies as indicated in Table 5 were from Cell Signaling Technologies, except for anti-P-eIF4E (Merck Millipore). Secondary antibodies were obtained from Thermo Fisher Scientific Inc. (Waltham, Mass., United States of America) and used at 1:20,000 dilution.
MNKs are the only kinases known to phosphorylate eIF4E, and accordingly, the phosphorylation of eIF4E (P-eIF4E) provides a direct read-out of MNK biological activity.
(§1) Since eIF4E is only phosphorylated by the MNKs, its phosphorylation status is a reliable read-out of intracellular MNK activity. […] MNK2 is the main MNK in 3T3-L1 cells and in adipose tissue (Moore et al., 2016). In additional studies, tests were conducted to assess the effect of the MNK-I2 inhibitor on the induction of differentiation markers in 3T3-L1 cells.

MNK1 [1] = target: MNK1 (Homo sapiens, UniProt Q9BUB5); settings: cited from earlier work
MNK1 (Homo sapiens, UniProt Q9BUB5), sequence (Q9BUB5 whole entry, species assumed): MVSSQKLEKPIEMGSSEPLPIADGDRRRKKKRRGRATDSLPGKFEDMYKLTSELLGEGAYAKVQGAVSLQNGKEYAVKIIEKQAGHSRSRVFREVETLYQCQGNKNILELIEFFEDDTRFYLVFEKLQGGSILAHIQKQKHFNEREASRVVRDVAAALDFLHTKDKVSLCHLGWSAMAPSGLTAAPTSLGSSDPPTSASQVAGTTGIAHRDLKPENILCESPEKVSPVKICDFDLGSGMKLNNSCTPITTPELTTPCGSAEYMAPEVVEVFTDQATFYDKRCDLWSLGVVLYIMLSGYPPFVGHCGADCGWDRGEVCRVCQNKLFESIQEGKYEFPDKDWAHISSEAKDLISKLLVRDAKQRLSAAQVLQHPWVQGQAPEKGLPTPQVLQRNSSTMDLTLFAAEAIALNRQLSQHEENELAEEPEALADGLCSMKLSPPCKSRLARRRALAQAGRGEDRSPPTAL

MNK1 [2] = target: T1, MNK1 (Mus musculus, UniProt O08605); test: P-eIF4E in MNK2-KO mouse embryonic fibroblasts (reports on MNK1); assay type: cell-based; settings: 1 h
T1 construct: endogenous in cells; host or cells: MNK2-KO mouse embryonic fibroblasts
T1 sequence (O08605 whole entry): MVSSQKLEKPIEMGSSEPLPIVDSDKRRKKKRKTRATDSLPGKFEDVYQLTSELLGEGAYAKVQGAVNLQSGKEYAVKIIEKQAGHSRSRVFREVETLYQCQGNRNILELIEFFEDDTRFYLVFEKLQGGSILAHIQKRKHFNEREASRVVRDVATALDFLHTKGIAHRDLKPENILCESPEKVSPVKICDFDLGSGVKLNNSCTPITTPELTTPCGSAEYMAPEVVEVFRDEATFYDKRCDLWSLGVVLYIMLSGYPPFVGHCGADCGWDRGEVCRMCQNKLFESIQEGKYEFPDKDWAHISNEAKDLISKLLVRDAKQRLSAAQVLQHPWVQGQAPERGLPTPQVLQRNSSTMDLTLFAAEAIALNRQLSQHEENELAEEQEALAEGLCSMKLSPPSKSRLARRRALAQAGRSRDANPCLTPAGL
Source text: FIG. 16 provides the results of studies conducted on mouse embryonic fibroblasts (MEFs): MNK1-KO (A) or MNK2-KO (B). […] The graphs show combined data from three experiments. *, p<0.05 vs. untreated control; ****, p<0.0001, vs. untreated control.
In some embodiments, the MNK inhibitor may preferably show selectivity and/or increased inhibitory potency to MNK2. A simple test for assessing the selectivity of an MNK inhibitor can be conducted by treating suitable cells from animals in which either MNK1 or MNK2 has been knocked out (eg mouse embryonic fibroblasts (MEFs) from MNK1-KO and MNK2-KO mice) with the MNK inhibitor. Since, in MNK1-KO MEFs, eIF4E phosphorylation depends on MNK2, and vice versa, monitoring the effect of different concentrations of an MNK inhibitor of interest on P-eIF4E levels in MNK-KO MEFs reports on the ability of that compound to inhibit MNK2 (MNK1-KO MEFs) or MNK1 (MNK2-KO MEFs).
as §1

3T3-L1 cells [3] = test: Induction of adipogenic gene mRNAs in differentiating 3T3-L1 cells (RT-qPCR); assay type: cell-based
Procedure: Total RNA was isolated from tissues (frozen at the time of sampling) using Trizol reagent (Sigma-Aldrich) according to the manufacturer's instructions. RNA concentrations were determined by absorbance at 260 nm, while quality and integrity were evaluated via 260/230 and 260/280 ratios using a NanoDrop spectrophotometer (Thermo Fisher Scientific). RT-real time PCR amplification was carried out using the ImProm-II Reverse Transcription System (A3800; Promega, Madison, Wis., United States of America) with random primers following the manufacturer's protocol. Subsequently, real-time quantitative (q) PCR was performed using primer sequences described in Supplemental Table S1 of Moore CEJ et al., 2016, the content of which is hereby incorporated by reference in its entirety). The comparative CT method was used to measure the amplification of target mRNA levels compared with […] (B2M) mRNA. In FIG. 1A, the relative amount of each transcript was determined using the equation 2^−dCt, where dCt=(Ct target gene-Ct ref gene), and Ct=cycle threshold.
(§2) For induction of 3T3-L1 (fibroblast) cell differentiation, pre-adipocytes were grown to 2 days post-confluence in DMEM supplemented with 10% FBS (day 0) and the medium was changed to DMEM supplemented with 10% FBS, insulin (167 nM), dexamethasone (0.5 μM), isobutylmethylxanthine (IBMX) (0.5 mM) and rosiglitazone (2 μM). After 48 h, the medium was replaced with medium containing DMEM supplemented with 10% (v/v) FBS and 167 nM insulin. On day 4, after inducing differentiation, and thereafter, the cells were cultured in DMEM with 10% FBS. The maintenance medium was changed every 48 h until the cells were utilised for experimentation (9 days from the initiation of differentiation).
In order to study the role of MNK2 in adipocyte differentiation, 3T3-L1 cells were used in a similar manner to that described in Example 1. […]

MNK2 = target: T2, MNK2 (Mus musculus, UniProt Q8CDB0); test: P-eIF4E in MNK1-KO mouse embryonic fibroblasts (reports on MNK2); assay type: cell-based
T2 construct: endogenous in cells; host or cells: MNK1-KO mouse embryonic fibroblasts
T2 sequence (Q8CDB0 whole entry): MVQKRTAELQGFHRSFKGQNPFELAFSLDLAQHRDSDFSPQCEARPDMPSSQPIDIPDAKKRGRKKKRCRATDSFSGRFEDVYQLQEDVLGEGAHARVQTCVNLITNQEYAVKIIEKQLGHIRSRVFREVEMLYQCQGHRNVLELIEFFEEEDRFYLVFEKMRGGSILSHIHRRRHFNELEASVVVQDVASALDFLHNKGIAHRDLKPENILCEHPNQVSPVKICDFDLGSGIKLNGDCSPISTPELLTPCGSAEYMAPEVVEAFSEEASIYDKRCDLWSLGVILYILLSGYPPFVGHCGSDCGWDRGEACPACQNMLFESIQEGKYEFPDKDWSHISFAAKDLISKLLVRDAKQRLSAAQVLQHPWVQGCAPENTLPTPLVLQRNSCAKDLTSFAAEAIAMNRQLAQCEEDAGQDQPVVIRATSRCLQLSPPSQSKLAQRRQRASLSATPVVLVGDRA

other protein kinases = settings: cited from earlier work
3T3-L1 cells [4] = test: Lipid accumulation in differentiating 3T3-L1 cells (Oil Red O / triglyceride); assay type: cell-based; settings: 10 μM, 3T3-L1 cells
Procedure: as §2
Assessment of intracellular triglyceride levels was performed using Oil Red O staining as described by others (Smith et al., 1988). Briefly, on day 9 of differentiation of the 3T3-L1 cells were fixed in 10% formalin for 1 hour. […] For quantification, cells were washed extensively with water to remove unbound dye, and 1 ml isopropanol was added to the stained 6-well culture plate. After 5 min, the absorbance of the oil red extract at 510 nm was measured, with an increased absorbance indicative of an increased lipid level within the cells.
The amount of tissue-released triglyceride (TAG) was measured using a Triglyceride Quantification Kit (Abcam, ab65336).

SMILES: COc1cc(F)ccc1Nc1ncnc2sc(C(=O)N3CCOCC3)c(C)c12 [MNK-5K]
Comments (ability to inhibit MNKs, eIF4E phosphorylation) (MNKs): Almost inactive

SMILES: Cc1c(C(=O)NCCCN2CCOCC2)sc2ncnc(Nc3ccc(F)cc3OC(C)C)c12 [MNK-7O]
Comments (ability to inhibit MNKs, eIF4E phosphorylation) (MNKs): Good activity

SMILES: COc1cc(F)ccc1Nc1ncnc2sc(C(=O)NCCc3c[nH]cn3)c(C)c12 [MNK-5S]
Comments (ability to inhibit MNKs, eIF4E phosphorylation) (MNKs): Moderate activity

SMILES: COc1cc(F)ccc1Nc1ncnc2sc(C(=O)N3CCCC3)c(C)c12 [MNK-5X]
Comments (ability to inhibit MNKs, eIF4E phosphorylation) (MNKs): Almost inactive

SMILES: Cc1c(C(=O)OCCc2ccccc2)sc2ncnc(Nc3ccc(F)cc3OC(C)C)c12 [MNK-7T]
Comments (ability to inhibit MNKs, eIF4E phosphorylation) (MNKs): inactive

SMILES: Cc1c(C(=O)OCCO)sc2ncnc(Nc3ccc(F)cc3OC(C)C)c12 [MNK-7F]
Comments (ability to inhibit MNKs, eIF4E phosphorylation) (MNKs): Weak activity

SMILES: Cc1c(C(=O)OCCCO)sc2ncnc(Nc3ccc(F)cc3OC(C)C)c12 [MNK-7L]
Comments (ability to inhibit MNKs, eIF4E phosphorylation) (MNKs): Partial activity

SMILES: COc1cc(F)ccc1Nc1ncnc2sc(C(=O)NC3CCCCC3)c(C)c12 [MNK-5W]
Comments (ability to inhibit MNKs, eIF4E phosphorylation) (MNKs): Moderate activity

SMILES: Cc1c(C(=O)N2CCCC2)sc2ncnc(Nc3ccc(F)cc3OC(C)C)c12 [MNK-7X]
Comments (ability to inhibit MNKs, eIF4E phosphorylation) (MNKs): Partial actvitiy

SMILES: COc1cc(F)ccc1Nc1ncnc2sc(C(=O)NCCc3ccncc3)c(C)c12 [MNK-5U]
Comments (ability to inhibit MNKs, eIF4E phosphorylation) (MNKs): Moderate activity

SMILES: Cc1c(C(=O)NCCc2c[nH]cn2)sc2ncnc(Nc3ccc(F)cc3OC(C)C)c12 [JX-MNK-7S]
Comments (ability to inhibit MNKs, eIF4E phosphorylation) (MNKs): Good activity

SMILES: COC(=O)[C@@]1(C)C[C@@]2(C)O[C@]1(C)n1c3ccccc3c3c4c(c5c6ccccc6n2c5c31)C(=O)NC4 [CGP052088]
IC50 (MNK1 [1]): 70 nM

SMILES: Cc1c(C(=O)NCCc2ccncc2)sc2ncnc(Nc3ccc(F)cc3OC(C)C)c12 [MNK-7U]
Comments (ability to inhibit MNKs, eIF4E phosphorylation) (MNKs): Good activity

SMILES: Cc1c(C(=O)N2CCOCC2)sc2ncnc(Nc3ccc(F)cc3OC(C)C)c12 [MNK-7K]
Comments (ability to inhibit MNKs, eIF4E phosphorylation) (MNKs): Almost inactive

SMILES: COc1cc(F)ccc1Nc1ncnc2sc(C(=O)NCCCN3CCOCC3)c(C)c12 [MNK-5O]
Comments (ability to inhibit MNKs, eIF4E phosphorylation) (MNKs): Good activity

SMILES: COc1cc(F)ccc1Nc1ncnc2sc(C(=O)N3CCN(C)CC3)c(C)c12 [MNK-5V]
Comments (ability to inhibit MNKs, eIF4E phosphorylation) (MNKs): Almost inactive

inhibition of P-eIF4E in MNK2-KO MEFs (MNK1 [2]): weaker inhibitory effect than MNK-I1
SMILES: Cc1c(C(=O)NCCCN2CCCC2)sc2ncnc(Nc3ccc(F)cc3OC(C)C)c12 [MNK-I2]
induction of adipogenic genes (Cebpα, Cebpβ, Cebpδ, Pparγ, Fas, Acc, Cd36 mRNA) (3T3-L1 cells [3]; 3T3-L1 cells with differentiation cocktail, RT-qPCR): impaired the induction of all of the genes in the adipogenic programme | inhibition of P-eIF4E levels in MNK1-KO MEFs (MNK2; 1 h, lowest concentration 0.1 μM): inhibited P-eIF4E levels almost completely at all concentrations tested | selectivity for MNK2 over MNK1 (MNK2; comparison of MNK1-KO and MNK2-KO MEFs): selectivity of the MNK-I2 inhibitor for MNK2 over MNK1 | Comments (ability to inhibit MNKs, eIF4E phosphorylation) (MNKs): Good activity, especially against MNK2 | inhibition of P-eIF4E / MNK activity (MNKs; immunoblot): inhibits P-eIF4E strongly

SMILES: Cc1c(C(=O)NCC(C)(C)CN(C)C)sc2ncnc(Nc3ccc(F)cc3OC(C)C)c12 [MNK-7P]
Comments (ability to inhibit MNKs, eIF4E phosphorylation) (MNKs): Good activity

SMILES: Cc1c(C(=O)N2CCCCC2)sc2ncnc(Nc3ccc(F)cc3OC(C)C)c12 [MNK-7J]
Comments (ability to inhibit MNKs, eIF4E phosphorylation) (MNKs): inactive

SMILES: COc1cc(F)ccc1Nc1ncnc2sc(C(=O)NCCCN3CCCC3)c(C)c12 [MNK-5M]
Comments (ability to inhibit MNKs, eIF4E phosphorylation) (MNKs): Good activity

SMILES: Cc1c(C(=O)N2CCN(C)CC2)sc2ncnc(Nc3ccc(F)cc3OC(C)C)c12 [MNK-7V]
Comments (ability to inhibit MNKs, eIF4E phosphorylation) (MNKs): Partial activity

SMILES: COc1cc(F)ccc1Nc1ncnc2sc(C(=O)N3CCCCC3)c(C)c12 [MNK-5J]
Comments (ability to inhibit MNKs, eIF4E phosphorylation) (MNKs): inactive

SMILES: Cc1c(C(=O)NCCCO)sc2ncnc(Nc3ccc(F)cc3OC(C)C)c12 [MNK-7I]
Comments (ability to inhibit MNKs, eIF4E phosphorylation) (MNKs): Partially active

SMILES: COc1cc(F)ccc1Nc1ncnc2sc(C(=O)NCC(C)(C)CN(C)C)c(C)c12 [MNK-5P]
Comments (ability to inhibit MNKs, eIF4E phosphorylation) (MNKs): Moderate activity

SMILES: Cc1c(C(=O)NC2CCCCC2)sc2ncnc(Nc3ccc(F)cc3OC(C)C)c12 [MNK-7W]
Comments (ability to inhibit MNKs, eIF4E phosphorylation) (MNKs): Partial activity

SMILES: CC(=O)C1=C(O)C=C2Oc3c(C(N)=O)c(O)cc(O)c3[C@]2(C)C1=O [cercosporamide, (9aS)-8-Acetyl-9,9a-dihydro-1,3,7-trihydroxy-9a-methyl-9-oxo-4-dibenzofurancaboxamide]
inhibition of other protein kinases (other protein kinases): inhibit other protein kinases in addition to the MNKs | induction of adipogenic genes such as PPARγ (mRNA) (3T3-L1 cells [3]; 10 μM, 3T3-L1 cells): impaired the induction of genes such as PPARγ | lipid accumulation (3T3-L1 cells [4]): reduced lipid accumulation
